Assay results from publication PMC5231411 (Science signaling, 2016).

Experiments:
[1] = test system: male Fisher 344 rats; experiment: Suppression of VTA ICSS by 1.8% lactic acid; format: in vivo, rat; settings: triazole 1.1 24 mg/kg
[2] = test system: C57BL/6 mice; experiment: Chloroquine phosphate-induced scratching; format: in vivo, mouse; settings: NorBNI 10 mg/kg ip 24 hours prior; triazole 1.1 1 mg/kg sc
[3] = test system: male Fisher 344 rats; settings: NorBNI 32 mg/kg 24 hours prior; U50,488H 6 mg/kg
[4] = test system: C57BL/6 mice; experiment: Warm water tail immersion; format: in vivo, mouse
[5] = test system: KOR; experiment: Bias analysis, G protein; settings: reference U50,488H
[6] = molecular target: striatal KOR (Mus musculus, UniProt P33534); format: binding
Sequence of striatal KOR (P33534 whole entry): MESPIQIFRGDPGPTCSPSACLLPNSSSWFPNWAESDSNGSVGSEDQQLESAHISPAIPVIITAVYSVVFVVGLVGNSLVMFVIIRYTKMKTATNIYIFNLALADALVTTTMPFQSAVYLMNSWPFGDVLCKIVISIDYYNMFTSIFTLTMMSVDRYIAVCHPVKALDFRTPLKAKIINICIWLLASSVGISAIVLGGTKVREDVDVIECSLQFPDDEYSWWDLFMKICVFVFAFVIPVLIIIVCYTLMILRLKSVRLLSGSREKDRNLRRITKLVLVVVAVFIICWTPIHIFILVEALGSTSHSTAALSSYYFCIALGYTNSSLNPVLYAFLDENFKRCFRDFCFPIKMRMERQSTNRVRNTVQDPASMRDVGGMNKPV

[7] = after systemic dosing; cited from earlier work
[8] = molecular target: KOR in mouse striatum (Mus musculus, UniProt P33534); experiment: [35S]GTPγS binding in mouse striatal membranes; format: biochemical
Sequence of KOR in mouse striatum (P33534 whole entry): as above

[9] = test system: dopamine release in nucleus accumbens; settings: mouse brain slices
[10] = test system: KOR; settings: compared to reference agonist U69,593; cited from earlier work
[11] = test system: dopamine concentration in nucleus accumbens; experiment: Microdialysis of nucleus accumbens dopamine in freely moving mice; format: in vivo, mouse; settings: triazole 1.1 15 mg/kg ip
[12] = molecular target: human KOR (Homo sapiens, UniProt P41145); format: biochemical
Sequence of human KOR (P41145 whole entry): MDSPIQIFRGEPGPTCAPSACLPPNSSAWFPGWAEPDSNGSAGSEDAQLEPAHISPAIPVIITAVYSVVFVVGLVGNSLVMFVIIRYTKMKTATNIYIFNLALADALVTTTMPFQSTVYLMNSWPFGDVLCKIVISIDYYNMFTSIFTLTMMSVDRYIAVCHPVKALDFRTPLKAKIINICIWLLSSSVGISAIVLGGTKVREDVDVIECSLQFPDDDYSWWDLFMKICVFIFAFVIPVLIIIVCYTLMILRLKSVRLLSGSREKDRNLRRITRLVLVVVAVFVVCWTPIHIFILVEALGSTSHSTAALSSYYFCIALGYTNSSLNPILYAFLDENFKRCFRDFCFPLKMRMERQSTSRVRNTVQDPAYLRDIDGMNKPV

[13] = test system: C57BL/6J male mice; settings: mouse, in vivo
[14] = molecular target: KOR (OPRK1) βarrestin2 recruitment (Homo sapiens, UniProt P41145); experiment: βarrestin2 enzyme fragment complementation assay; format: cell-based
Sequence of KOR (OPRK1) βarrestin2 recruitment (P41145 whole entry, the tested form may be a part): as the sequence (P41145 whole entry) above

[15] = test system: KOR; settings: cited from earlier work
[16] = test system: mice; settings: mouse, in vivo; cited from earlier work
[17] = test system: mice; settings: cited from earlier work

Oc1ccc2c3c1O[C@H]1c4[nH]c5c(c4C[C@@]4(O)[C@@H](C2)N(CC2CC2)CC[C@]314)C[C@@]1(O)[C@H]2Cc3ccc(O)c4c3[C@@]1(CCN2CC1CC1)[C@H]5O4 [NorBNI, Norbinaltorphimine, reference compound]
Blockade of analgesic effect of triazole 1.1 on lactic acid-suppressed ICSS ([1]; NorBNI 32 mg/kg prior): completely blocked | Blockade of antipruritic effects of triazole 1.1 [2]: blocked the antipruritic effects of triazole 1.1 | Blockade of U50,488H effects on ICSS [3]: blocked | Antagonism of agonist-induced antinociception (tail flick) ([4]; NorBNI 15 mg/kg ip, 10 min before U50,488H or triazole 1.1): fully antagonized the antinociception produced by both compounds

Cc1ccc(CSc2nnc(-c3ccccn3)n2Cc2ccco2)cc1C(F)(F)F [Triazole 1.1, 2-(4-(furan-2-ylmethyl)-5-((4-methyl-3-(trifluoromethyl)benzyl)thio)-4H-1,2,4-triazol-3-yl)pyridine]
Bias factor G/β (10^ΔΔLogR) ([5]; G protein/βarrestin2): 28 | ΔΔLogR (ΔLogR of [35S]GTPγS − ΔLogR of βarrestin2 EFC) ([5]; with 95% CI): 1.44 (1.29 to 1.60) | Effect on lactic acid-induced suppression of ICSS (EF50 and Rmax) ([1]; […] lactic acid ip, ketoprofen 1 mg/kg sc, U50,488H 6 mg/kg): suppressed the effect of lactic acid compared to vehicle administration | Reduction of specific [3H]U69,593 binding in striatum compared to untreated mice [6]: 40% | Brain penetration (tissue content in whole brain) [7]: brain-penetrant | EC50 [8]: 497 ± 34 nM | Effect on evoked dopamine release, nucleus accumbens core ([9]; 10-1000 nM): no measureable decreases in the core | Effect on evoked dopamine release, nucleus accumbens shell ([9]; 10-1000 nM): a modest decrease in the shell only at the highest concentration tested | EC50 for decrease in dopamine release, nucleus accumbens core ([9]; 10-1000 nM cumulative): nonconvergence of curves | EC50 for decrease in dopamine release, nucleus accumbens shell ([9]; 10-1000 nM cumulative): nonconvergence of curves | Preference for G protein signaling over βarrestin2 recruitment [10]: displays a preference for G protein signaling over βarrestin2 recruitment | Effect on dopamine concentration in nucleus accumbens (microdialysis) [11]: did not significantly affect dopamine concentrations | [35S]GTPγS binding assay Emax [12]: 101 ± 5% | Locomotor activity (ambulation) in open field over 1 hour [13]: did not affect locomotor activity at any of the doses tested | βarrestin2 enzyme fragment complementation assay Emax [14]: 98 ± 4% | Response latency (%MPE) in warm water tail flick assay ([4]; C57BL/6 mice, sc, 20 min after injection, 10-s cutoff): produced an increase in response latency in a dose-dependent manner | Antinociceptive efficacy in KOR-KO mice (tail flick) ([4]; KOR-KO mice, 30 mg/kg, ip): Neither drug had efficacy in KOR-KO mice

RB-64
Bias for G protein signaling over βarrestin2 recruitment [15]: displays bias for G protein signaling over βarrestin2 recruitment | Antinociceptive efficacy and locomotor activity [16]: preserves antinociceptive efficacy without decreasing locomotor activity | Conditioned place aversion (CPA) [17]: produces conditioned place aversion (CPA) in mice
